Data from the CheMixHub viscosity set.
± gives the uncertainty stated by the source.

Test: xn = mol fraction of the nth substance listed
Conditions: 101.33 kPa

CCCCCCCCCCCC(=O)OCC + CCCCO
Conditions	viscosity [mPa·s]
293.15 K, x1 = 0.1001	2.703 ± 0.031
293.15 K, x1 = 0.2001	2.643 ± 0.03
293.15 K, x1 = 0.3002	2.654 ± 0.031
293.15 K, x1 = 0.4	2.718 ± 0.031
293.15 K, x1 = 0.5001	2.8 ± 0.032
293.15 K, x1 = 0.6002	2.891 ± 0.033
293.15 K, x1 = 0.6997	3.008 ± 0.034
293.15 K, x1 = 0.8	3.111 ± 0.036
293.15 K, x1 = 0.9001	3.225 ± 0.037
293.15 K, x2 = 0.1019	3.227 ± 0.13
293.15 K, x2 = 0.2001	3.082 ± 0.13
293.15 K, x2 = 0.3	2.969 ± 0.12
293.15 K, x2 = 0.4001	2.866 ± 0.12
293.15 K, x2 = 0.5	2.781 ± 0.11
293.15 K, x2 = 0.6	2.699 ± 0.11
293.15 K, x2 = 0.7	2.641 ± 0.11
293.15 K, x2 = 0.8	2.624 ± 0.11
293.15 K, x2 = 0.8999	2.688 ± 0.11
298.15 K, x2 = 0.1019	2.872 ± 0.12
298.15 K, x2 = 0.2001	2.757 ± 0.11
298.15 K, x2 = 0.3	2.645 ± 0.11
298.15 K, x2 = 0.4001	2.566 ± 0.11
298.15 K, x2 = 0.5	2.477 ± 0.1
298.15 K, x2 = 0.6	2.409 ± 0.099
298.15 K, x2 = 0.7	2.363 ± 0.097
298.15 K, x2 = 0.8	2.342 ± 0.096
298.15 K, x2 = 0.8999	2.395 ± 0.098
303.15 K, x1 = 0.0997	2.129 ± 0.025
303.15 K, x1 = 0.2001	2.093 ± 0.025
303.15 K, x1 = 0.2998	2.118 ± 0.025
303.15 K, x1 = 0.3532	2.142 ± 0.025
303.15 K, x1 = 0.4999	2.233 ± 0.026
303.15 K, x1 = 0.5982	2.313 ± 0.027
303.15 K, x1 = 0.6997	2.386 ± 0.028
303.15 K, x1 = 0.7986	2.474 ± 0.029
303.15 K, x1 = 0.9006	2.582 ± 0.03
303.15 K, x2 = 0.1019	2.575 ± 0.11
303.15 K, x2 = 0.2001	2.468 ± 0.1
303.15 K, x2 = 0.3	2.391 ± 0.098
303.15 K, x2 = 0.4001	2.309 ± 0.095
303.15 K, x2 = 0.5	2.241 ± 0.092
303.15 K, x2 = 0.6	2.164 ± 0.089
303.15 K, x2 = 0.7	2.122 ± 0.087
303.15 K, x2 = 0.8	2.092 ± 0.086
303.15 K, x2 = 0.8999	2.131 ± 0.087
308.15 K, x2 = 0.1019	2.311 ± 0.095
308.15 K, x2 = 0.2001	2.225 ± 0.091
308.15 K, x2 = 0.3	2.147 ± 0.088
308.15 K, x2 = 0.4001	2.084 ± 0.085
308.15 K, x2 = 0.5	2.015 ± 0.083
308.15 K, x2 = 0.6	1.943 ± 0.08
308.15 K, x2 = 0.7	1.9 ± 0.078
308.15 K, x2 = 0.8	1.868 ± 0.077
308.15 K, x2 = 0.8999	1.896 ± 0.078
313.15 K, x1 = 0.1	1.744 ± 0.021
313.15 K, x1 = 0.1724	1.724 ± 0.021
313.15 K, x1 = 0.2999	1.72 ± 0.021
313.15 K, x1 = 0.4004	1.742 ± 0.021
313.15 K, x1 = 0.4998	1.781 ± 0.021
313.15 K, x1 = 0.5998	1.818 ± 0.022
313.15 K, x1 = 0.7011	1.862 ± 0.022
313.15 K, x1 = 0.7997	1.927 ± 0.023
313.15 K, x1 = 0.8926	1.979 ± 0.023
313.15 K, x2 = 0.1019	2.112 ± 0.087
313.15 K, x2 = 0.2001	2.018 ± 0.083
313.15 K, x2 = 0.3	1.946 ± 0.08
313.15 K, x2 = 0.4001	1.881 ± 0.077
313.15 K, x2 = 0.5	1.816 ± 0.074
313.15 K, x2 = 0.6	1.754 ± 0.072
313.15 K, x2 = 0.7	1.709 ± 0.07
313.15 K, x2 = 0.8	1.685 ± 0.069
313.15 K, x2 = 0.8999	1.695 ± 0.069
318.15 K, x2 = 0.1019	1.934 ± 0.079
318.15 K, x2 = 0.2001	1.855 ± 0.076
318.15 K, x2 = 0.3	1.787 ± 0.073
318.15 K, x2 = 0.4001	1.725 ± 0.071
318.15 K, x2 = 0.5	1.66 ± 0.068
318.15 K, x2 = 0.6	1.605 ± 0.066
318.15 K, x2 = 0.7	1.563 ± 0.064
318.15 K, x2 = 0.8	1.529 ± 0.063
318.15 K, x2 = 0.8999	1.534 ± 0.063
323.15 K, x2 = 0.1019	1.745 ± 0.072
323.15 K, x2 = 0.2001	1.674 ± 0.069
323.15 K, x2 = 0.3	1.615 ± 0.066
323.15 K, x2 = 0.4001	1.563 ± 0.064
323.15 K, x2 = 0.5	1.508 ± 0.062
323.15 K, x2 = 0.6	1.447 ± 0.059
323.15 K, x2 = 0.7	1.399 ± 0.057
323.15 K, x2 = 0.8	1.374 ± 0.056
323.15 K, x2 = 0.8999	1.364 ± 0.056
